Laboratory results published in ChEMBL document CHEMBL1201862, “PubChem BioAssay data set” (2004).
Where “and” joins values, the source holds several entries; their conditions need not be identical. Equal values may be shown once.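 Results reflect a 48-hour exposure of cells in 96-well plates to compound at five concentrations. GI50 = concentration required for 50% inhibition of growth.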 Calls of active or inactive are those of the source. Cut-off read from the data, not from the text of the source: active = GI50 up to about 1.1 µM and inactive = higher.

Assays:
Experiment in all cases: NCI-60 cell line screen, 48 h
[1] = system: KM-20L2
[2] = system: EKVX
[3] = system: UACC-257
[4] = system: SK-MEL-5
[5] = system: SF-268
[6] = system: SNB-75
[7] = system: HOP-62
[8] = system: HL-60
[9] = system: NCI-H23
[10] = system: 786-0
[11] = system: SN12C
[12] = system: SK-OV-3
[13] = system: SK-MEL-2
[14] = system: OVCAR-8
[15] = system: TK-10
[16] = system: NCI-H460
[17] = system: OVCAR-3
[18] = system: DLD-1
[19] = system: SNB-19
[20] = system: LXFL 529
[21] = system: OVCAR-4
[22] = system: HCT-15
[23] = system: SF-539
[24] = system: M19-MEL
[25] = system: Malme-3M
[26] = system: CCRF-CEM
[27] = system: KM12
[28] = system: NCI-H522
[29] = system: HCT-116
[30] = system: ACHN
[31] = system: CAKI-1
[32] = system: OVCAR-5
[33] = system: LOX IMVI
[34] = system: MOLT-4
[35] = system: RPMI-8226
[36] = system: DMS-273
[37] = system: K562
[38] = system: COLO 205
[39] = system: U-251
[40] = system: UO-31
[41] = system: HOP-92
[42] = system: HCC 2998
[43] = system: SW-620
[44] = system: M14
[45] = system: A498
[46] = system: SNB-78
[47] = system: UACC-62
[48] = system: A549
[49] = system: SR
[50] = system: SK-MEL-28
[51] = system: NCI-H226
[52] = system: DMS-114
[53] = system: XF498
[54] = system: SF-295
[55] = system: HT-29
[56] = system: IGROV-1
[57] = system: BT-549
[58] = system: HOP-18

CCN(CC)CC1CCCCN1CC(=O)N1c2cc(Cl)ccc2NC(=O)CC1C (stereo unspecified)
GI50 [1]: > 100 µM (inactive)
GI50 [2]: > 100 µM (inactive)
GI50 [3]: > 100 µM (inactive)
GI50 [4]: > 100 µM (inactive)
GI50 [5]: > 100 µM (inactive)
GI50 [6]: > 100 µM (inactive)
GI50 [7]: > 100 µM (inactive)
GI50 [8]: > 100 µM (inactive)
GI50 [9]: > 100 µM (inactive)
GI50 [10]: > 100 µM (inactive)
GI50 [11]: > 100 µM (inactive)
GI50 [12]: 0.0849 µM (active)
GI50 [13]: > 100 µM (inactive)
GI50 [14]: > 100 µM (inactive)
GI50 [15]: > 100 µM (inactive)
GI50 [16]: > 100 µM (inactive)
GI50 [17]: > 100 µM (inactive)
GI50 [18]: > 100 µM (inactive)
GI50 [19]: > 100 µM (inactive)
GI50 [20]: > 100 µM (inactive)
GI50 [21]: > 100 µM (inactive)
GI50 [22]: > 10 µM
GI50 [23]: > 100 µM (inactive)
GI50 [24]: > 100 µM (inactive)
GI50 [25]: > 100 µM (inactive)
GI50 [26]: > 100 µM (inactive)
GI50 [27]: > 100 µM (inactive)
GI50 [28]: > 100 µM (inactive)
GI50 [29]: > 100 µM (inactive)
GI50 [30]: > 100 µM (inactive)
GI50 [31]: > 100 µM (inactive)
GI50 [32]: > 100 µM (inactive)
GI50 [33]: > 100 µM (inactive)
GI50 [34]: > 100 µM (inactive)
GI50 [35]: > 100 µM (inactive)
GI50 [36]: > 100 µM (inactive)
GI50 [37]: > 100 µM (inactive)
GI50 [38]: > 100 µM (inactive)
GI50 [39]: > 100 µM (inactive)
GI50 [40]: > 100 µM (inactive)
GI50 [41]: > 100 µM (inactive)
GI50 [42]: > 100 µM (inactive)
GI50 [43]: > 100 µM (inactive)
GI50 [44]: > 100 µM (inactive)
GI50 [45]: > 100 µM (inactive)
GI50 [46]: > 100 µM (inactive)
GI50 [47]: 55.3 µM (inactive)
GI50 [48]: > 100 µM (inactive)
GI50 [49]: > 100 µM (inactive)
GI50 [50]: > 100 µM (inactive)
GI50 [51]: > 100 µM (inactive)
GI50 [52]: > 100 µM (inactive)
GI50 [53]: > 100 µM (inactive)

CCOC(=O)CC(NC(=O)c1nc[nH]c1/N=N/N(C)C)C(=O)OCC (stereo unspecified)
GI50 [2]: > 100 µM (inactive)
GI50 [3]: > 100 µM (inactive)
GI50 [4]: > 100 µM (inactive)
GI50 [54]: > 100 µM (inactive)
GI50 [5]: > 100 µM (inactive)
GI50 [6]: > 100 µM (inactive)
GI50 [7]: > 100 µM (inactive)
GI50 [8]: > 100 µM (inactive)
GI50 [9]: > 100 µM (inactive)
GI50 [10]: > 100 µM (inactive)
GI50 [11]: > 100 µM (inactive)
GI50 [12]: > 100 µM (inactive)
GI50 [13]: > 100 µM (inactive)
GI50 [14]: > 100 µM (inactive)
GI50 [15]: > 100 µM (inactive)
GI50 [16]: > 100 µM (inactive)
GI50 [17]: > 100 µM (inactive)
GI50 [18]: > 100 µM (inactive)
GI50 [19]: > 100 µM (inactive)
GI50 [55]: > 100 µM (inactive)
GI50 [20]: > 100 µM (inactive)
GI50 [21]: > 100 µM (inactive)
GI50 [22]: > 100 µM
GI50 [23]: > 100 µM (inactive)
GI50 [56]: > 100 µM (inactive)
GI50 [24]: > 100 µM (inactive)
GI50 [25]: > 100 µM (inactive)
GI50 [26]: > 100 µM (inactive)
GI50 [27]: > 100 µM (inactive)
GI50 [28]: > 100 µM (inactive)
GI50 [29]: > 100 µM (inactive)
GI50 [30]: > 100 µM (inactive)
GI50 [31]: > 100 µM (inactive)
GI50 [32]: > 100 µM (inactive)
GI50 [33]: > 100 µM (inactive)
GI50 [34]: > 100 µM (inactive)
GI50 [35]: > 100 µM (inactive)
GI50 [36]: > 100 µM (inactive)
GI50 [37]: > 100 µM (inactive)
GI50 [38]: > 100 µM (inactive)
GI50 [39]: > 100 µM (inactive)
GI50 [40]: > 100 µM (inactive)
GI50 [42]: > 100 µM (inactive)
GI50 [43]: > 100 µM (inactive)
GI50 [44]: > 100 µM (inactive)
GI50 [45]: > 100 µM (inactive)
GI50 [47]: > 100 µM (inactive)
GI50 [48]: > 100 µM (inactive)
GI50 [49]: > 100 µM (inactive)
GI50 [50]: > 100 µM (inactive)
GI50 [51]: > 100 µM (inactive)
GI50 [52]: > 100 µM (inactive)

Oc1cccc2cccnc12 [OXYQUINOLINE]
GI50 [1]: 1.38 µM (inactive)
GI50 [4]: 8.69 µM (inactive) and 4.93 µM (inactive)
GI50 [8]: 251 nM (active) and 457 nM (active)
GI50 [57]: > 80.2 µM (inactive)
GI50 [18]: 1.47 µM (inactive)
GI50 [20]: 0.605 µM (active)
GI50 [56]: 3.14 µM (inactive) and 4.5 µM (inactive)
GI50 [35]: 0.578 µM (active)
GI50 [36]: 2.53 µM (inactive)
GI50 [58]: 14.8 µM (inactive)
GI50 [49]: 0.453 µM (active)
